Patent US20240166604A1, “HYDROXYTYROSOL NICOTINAMIDE EUTECTIC CRYSTAL, AND PREPARATION METHOD THEREFOR AND COMPOSITION THEREOF” (COCRYSTAL TECHNOLOGY (JIAXING) CO., LTD., priority 2021, published 2024)

Tests used:
[1] = Hygroscopicity by dynamic moisture sorption (DVS); format: physicochemical; conditions: 80% relative humidity, 25° C.
Experimental: About 5 mg of powder sample was weighed and put in a dynamic moisture sorption instrument (DVS). The relative humidity range was set at from 0 to 95%, and the temperature was set at 25° C. The weight change of the samples under different environmental humidity conditions were recorded and used to compare the hygroscopicity of the material.

[2] = Chemical stability at 40° C./75% RH, hydroxytyrosol content by HPLC; format: physicochemical; conditions: double-layer polyethylene bags; for content of hydroxytyrosol, Day 0: 0 d, initial content set as 100%; for content of hydroxytyrosol, Day 14: 14 d; for content of hydroxytyrosol, Day 14 / content of hydroxytyrosol, Day 30: % of initial content; for content of hydroxytyrosol, Day 30: 30 d
Experimental: An appropriate amount of powder sample was put in an accelerated stability chamber at 40° C./75% RH with the packaging condition of double-layer polyethylene bags, and the sample was taken at 0 d, 14 d, and 30 d. The content of hydroxytyrosol was determined by high performance liquid chromatography (the content was calculated by external standard method).

In the case of `OCCc1ccc(O)c(O)c1` [Hydroxytyrosol itself, Hydroxytyrosol], the “hygroscopicity (weight change)” value [1] is reported as 16.9%, the “content of hydroxytyrosol, Day 0” value [2] is reported as 100.0% and the “content of hydroxytyrosol, Day 14” value [2] is reported as 98.8%. The “content of hydroxytyrosol, Day 30” value [2] was 92.3% and the “content of hydroxytyrosol, Day 30” value ([2]; listed as hydroxytyrosol itself) was 92.3%.

In the case of “co-crystal of hydroxytyrosol and nicotinamide [Example 1]”, the “hygroscopicity (in words)” value [1] is reported as “basically non-hygroscopic”, the “hygroscopicity (weight change)” value [1] is reported as 0.39% and the “content of hydroxytyrosol, Day 0” value [2] is reported as 100.0%. For the same compound, the “content of hydroxytyrosol, Day 14” value [2] was 99.7%.
